compound: COc1cc(Nc2ncc(F)c(Nc3ccc4c(n3)NC(=O)C(C)(C)O4)n2)cc(OC)c1OC [R406] + N=C(N)NC(=N)NCCc1ccccc1 [Phenformin] (partner 250 µM); test: relative viability (nuclei count vs DMSO), 5 days (fraction); higher = more cells survive; conditions: first compound 8 µM
In short: (§1)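 Lung cancer cell lines in 1536-well plates were dosed by pin tool the day after seeding, either with one drug alone or with a fixed anchor-drug dose plus five library-drug doses (not always all listed) in √10 steps. After 5 days, cells were fixed and their nuclei stained in one step (final 0.05% Triton X-100, 1% formaldehyde, 1 ug/ml Hoechst), then counted on 4× images. Relative viability is the nuclei count in treated wells divided by that in vehicle wells. Values are medians of duplicate plates.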

| Cell Line | relative viability |
| --- | --- |
| EMC-BAC-2 | 0.198 |
| NCI-H2085 | 0.495 |
| HCC-366 | 0.254 |
| NCI-H1666 | 0.476 |
| NCI-H647 | 0.12 |
| LK-2 | 0.105 |
| NCI-H2087 | 0.406 |
| NCI-H358 | 0.115 |
| NCI-H2170 | 0.372 |
| H3255 | 0.311 |
| COR-L23 | 0.261 |
| COR-L 105 | 0.224 |
| LOU-NH91 | 0.391 |
| ChaGo-K-1 | 0.403 |
| NCI-H1793 | 0.156 |
| NCI-H2405 | 0.195 |
| A549 | 0.0767 |
| NCI-H1623 | 0.554 |
| NCI-H1563 | 0.445 |

compound: O=C(/C=C/c1cccnc1)NCCCCC1CCN(C(=O)c2ccccc2)CC1 [Daporinad] + N=C(N)NC(=N)NCCc1ccccc1 [Phenformin] (partner 250 µM); test: as above; conditions: first compound 0.0005 µM
In short: as §1

| Cell Line | relative viability |
| --- | --- |
| NCI-H522 | 0.654 |
| NCI-H2342 | 0.62 |
| NCI-H838 | 0.551 |
| NCI-H1650 | 0.406 |
| NCI-H1993 | 0.536 |
| NCI-H441 | 0.813 |
| PC-14 | 0.357 |
| LCLC-103H | 0.351 |
| NCI-H596 | 0.627 |
| NCI-H2126 | 0.541 |
| EMC-BAC-2 | 0.57 |
| NCI-H2085 | 0.816 |
| HCC-366 | 0.565 |
| NCI-H1666 | 0.586 |
| NCI-H647 | 0.534 |
| LK-2 | 0.651 |
| NCI-H2087 | 0.405 |
| NCI-H358 | 0.297 |
| NCI-H2170 | 0.379 |
| H3255 | 0.355 |
| COR-L23 | 0.422 |
| COR-L 105 | 0.491 |
| LOU-NH91 | 0.645 |
| ChaGo-K-1 | 0.513 |
| NCI-H1793 | 0.322 |
| NCI-H2405 | 0.43 |
| A549 | 0.216 |
| NCI-H1623 | 0.545 |
| NCI-H1563 | 0.715 |

same assay, conditions: first compound 0.001581 µM

| Cell Line | relative viability |
| --- | --- |
| NCI-H522 | 0.758 |
| NCI-H2342 | 0.61 |
| NCI-H838 | 0.799 |
| NCI-H1650 | 0.55 |
| NCI-H1993 | 0.553 |
| NCI-H441 | 0.82 |
| PC-14 | 0.633 |
| LCLC-103H | 0.341 |
| NCI-H596 | 0.749 |
| NCI-H2126 | 0.533 |
| EMC-BAC-2 | 0.631 |
| NCI-H2085 | 0.855 |
| HCC-366 | 0.584 |
| NCI-H1666 | 0.563 |
| NCI-H647 | 0.65 |
| LK-2 | 0.305 |
| NCI-H2087 | 0.601 |
| NCI-H358 | 0.404 |
| NCI-H2170 | 0.424 |
| H3255 | 0.341 |
| COR-L23 | 0.463 |
| COR-L 105 | 0.485 |
| LOU-NH91 | 0.727 |
| ChaGo-K-1 | 0.532 |
| NCI-H1793 | 0.395 |
| NCI-H2405 | 0.459 |
| A549 | 0.253 |
| NCI-H1623 | 0.519 |
| NCI-H1563 | 0.744 |

same assay, conditions: first compound 0.005 µM

| Cell Line | relative viability |
| --- | --- |
| NCI-H522 | 0.695 |
| NCI-H2342 | 0.595 |
| NCI-H838 | 0.542 |
| NCI-H1650 | 0.416 |
| NCI-H1993 | 0.535 |
| NCI-H441 | 0.883 |
| PC-14 | 0.488 |
| LCLC-103H | 0.358 |
| NCI-H596 | 0.774 |
| NCI-H2126 | 0.586 |
| EMC-BAC-2 | 0.417 |
| NCI-H2085 | 0.796 |
| HCC-366 | 0.633 |
| NCI-H1666 | 0.602 |
| NCI-H647 | 0.641 |
| LK-2 | 0.314 |
| NCI-H2087 | 0.535 |
| NCI-H358 | 0.445 |
| NCI-H2170 | 0.415 |
| H3255 | 0.379 |
| COR-L23 | 0.317 |
| COR-L 105 | 0.545 |
| LOU-NH91 | 0.798 |
| ChaGo-K-1 | 0.434 |
| NCI-H1793 | 0.403 |
| NCI-H2405 | 0.484 |
| A549 | 0.133 |
| NCI-H1623 | 0.613 |
| NCI-H1563 | 0.755 |

same assay, conditions: first compound 0.01581 µM

| Cell Line | relative viability |
| --- | --- |
| NCI-H522 | 0.682 |
| NCI-H2342 | 0.546 |
| NCI-H838 | 0.415 |
| NCI-H1650 | 0.223 |
| NCI-H1993 | 0.578 |
| NCI-H441 | 0.734 |
| PC-14 | 0.4 |
| LCLC-103H | 0.327 |
| NCI-H596 | 0.746 |
| NCI-H2126 | 0.62 |
| EMC-BAC-2 | 0.298 |
| NCI-H2085 | 0.816 |
| HCC-366 | 0.606 |
| NCI-H1666 | 0.562 |
| NCI-H647 | 0.643 |
| LK-2 | 0.159 |
| NCI-H2087 | 0.496 |
| NCI-H358 | 0.303 |
| NCI-H2170 | 0.458 |
| H3255 | 0.424 |
| COR-L23 | 0.194 |
| COR-L 105 | 0.607 |
| LOU-NH91 | 1.02 |
| ChaGo-K-1 | 0.274 |
| NCI-H1793 | 0.564 |
| NCI-H2405 | 0.366 |
